The values below come from patent US4585773A, “Isoindolinyl-alkyl-piperazines” (Bristol-Myers Company, priority 1984, dated 1986).

Read-outs that look alike come from different tables or passages of the source.

A short description of experiment [1]: conscious rat diuretic screen of Lipschitz (Table I). It is filed as in vivo, rat (female Sprague Dawley; male Okamoto-Aoki). The following applies: for response vs control in vivo at 0.3 mg/kg / response vs control in vivo at 3 mg/kg / response vs control in vivo at 30 mg/kg / response vs control in vivo at 10 mg/kg: Rattus norvegicus, po. The essentials: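 Conscious rats (female Sprague Dawley or male Okamoto-Aoki) received test compound orally in dose-response fashion; urine volume, Na+ and K+ excretion were measured. Values are ratios of amounts excreted by treated versus control rats.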

In experiment [2] the test system is α blocking activity (norepinephrine). Description: in vivo α blocking activity, norepinephrine (NE) as α-agonist (Table III). Details: species or system rat. The conditions noted are these: ED50 after/before drug. The method, then:
In this example the compounds of Examples I (modified), II, III, V, VI, VII, VIII, IX and XI were tested in rats for in vivo α blocking activity according to methodology described at page 312 of Deitchman, et al., Journal of Pharmacological Methods, 3, 311-321 (1980). In this test phenylephrine (PE below) or norepinephrine (NE below) was administered as an α-agonist to the rats before and after dosing with the test drug and the average interpolated dose or PE/NE effecting a 50 mm Hg increase in mean arterial blood pressure was determined. Table III below records the results. In such Table, ED50 stands for such average interpolated dose and Average Dose Shift stands for the average ratio of ED50 after drug administration to ED50 before drug administration. The compound of Example I was tested as its monochloride 2-propanolate hydrate, i.e. as C22 H27 ClN4 O4 S.HCl 0.2(CH3)2 CHOH.0.15H2 O in Tests 1-5 and as the 3/4 mole hydrochloride, i.e. C22 H27 ClN 4 O4 S.3/4HCL in Tests 2a and 3a. The route was intravenous except in the case of the runs of Test Nos. 2a, 3, 3a, 26-29 the route was oral.

Setting [3] is: 3 mg/kg oral, male Okamoto-Aoki rats.
[4] abbreviates: 30 mg/kg oral, female Sprague Dawley rats.
The mark [5] stands for this setting: 30 mg/kg oral, male Okamoto-Aoki rats.
[6] abbreviates: 3 mg/kg oral, male Okamoto-Aoki rats, read-out: K+ Ratio.
Where [7] appears, read: 3 mg/kg oral, male Okamoto-Aoki rats, read-out: Na+ Ratio.
Setting [8] is: 3 mg/kg oral, male Okamoto-Aoki rats, read-out: Volume Ratio.
The mark [9] stands for this setting: 30 mg/kg oral, female Sprague Dawley rats, read-out: K+ Ratio.
[10] abbreviates: 30 mg/kg oral, female Sprague Dawley rats, read-out: Na+ Ratio.
Where [11] appears, read: 30 mg/kg oral, female Sprague Dawley rats, read-out: Volume Ratio.
Setting [12] is: 30 mg/kg oral, male Okamoto-Aoki rats, read-out: K+ Ratio.
Setting [13] is: 30 mg/kg oral, male Okamoto-Aoki rats, read-out: Na+ Ratio.
The mark [14] stands for this setting: 30 mg/kg oral, male Okamoto-Aoki rats, read-out: Volume Ratio.

As to `COc1ccccc1N1CCN(CCCN2Cc3cc(Cl)c(S(N)(=O)=O)cc3C2=O)CC1` [Example I, 6-chloro-2,3-dihydro-2-[3-[4-(2-methoxyphenyl)-1-piperazinyl]propyl]-3-oxo-1H-isoindole-5-sulfonamide], the “Urinary Na/K (Test Compound)” value in experiment [1] (0.3 mg/kg oral, male Okamoto-Aoki rats) was found to be 0.81; in experiment [1] (3 mg/kg oral, female Sprague Dawley rats), 2.55; in experiment [1] (setting [3]), 1.14; in experiment [1] (setting [4]) it was 2.98; in experiment [1] (setting [5]) it was 1.56. In addition, in experiment [1] (3.0 to 30 mg/kg body weight), the “natriuretic response (in words)” value is recorded as “dose-dependent natriuretic response”. Further, the response vs control in vivo at 0.3 mg/kg in experiment [1] (0.3 mg/kg oral, male Okamoto-Aoki rats, read-out: K+ Ratio) worked out at 78%; in experiment [1] (0.3 mg/kg oral, male Okamoto-Aoki rats, read-out: Na+ Ratio) it was 96%; in experiment [1] (0.3 mg/kg oral, male Okamoto-Aoki rats, read-out: Volume Ratio), 82%. The response vs control in vivo at 3 mg/kg is 100% in experiment [1] (3 mg/kg oral, female Sprague Dawley rats, read-out: K+ Ratio); 108% in experiment [1] (3 mg/kg oral, female Sprague Dawley rats, read-out: Na+ Ratio); 93% in experiment [1] (3 mg/kg oral, female Sprague Dawley rats, read-out: Volume Ratio); 103% in experiment [1] (setting [6]); 168% in experiment [1] (setting [7]); 204% in experiment [1] (setting [8]). Further, the response vs control in vivo at 30 mg/kg amounted to 106% in experiment [1] (setting [9]); 136% in experiment [1] (setting [10]); 98% in experiment [1] (setting [11]); 117% in experiment [1] (setting [12]); 261% in experiment [1] (setting [13]); 251% in experiment [1] (setting [14]). Moreover, the “Average Dose Shift” value is 3 ± 0.3 in experiment [2] (dose 0.3, intravenous) and 11 ± 1 in experiment [2] (dose 1.0, intravenous).
As to `COc1ccccc1N1CCN(CCN2Cc3cc(Cl)c(S(N)(=O)=O)cc3C2=O)CC1` [Example III, 6-Chloro-2,3-dihydro-2-[2-[4-(2-methoxyphenyl)-1-piperazinyl]ethyl]-3-oxo-1H-isoindole-5-sulfonamide], the “Urinary Na/K (Test Compound)” value in experiment [1] (setting [3]) is on record as 6.1; in experiment [1] (10 mg/kg oral, male Okamoto-Aoki rats) it was 6.7; in experiment [1] (setting [4]), 3.44; in experiment [1] (setting [5]) it was 6.7. Also, the response vs control in vivo at 3 mg/kg in experiment [1] (setting [6]) was found to be 121%; in experiment [1] (setting [7]) it was 113%; in experiment [1] (setting [8]), 122%. Also, the response vs control in vivo at 10 mg/kg in experiment [1] (10 mg/kg oral, male Okamoto-Aoki rats, read-out: K+ Ratio) came out at 115%; in experiment [1] (10 mg/kg oral, male Okamoto-Aoki rats, read-out: Na+ Ratio), 116%; in experiment [1] (10 mg/kg oral, male Okamoto-Aoki rats, read-out: Volume Ratio), 126%. For the same compound, the response vs control in vivo at 30 mg/kg worked out at 116% in experiment [1] (setting [9]); 134% in experiment [1] (setting [10]); 116% in experiment [1] (setting [11]); 130% in experiment [1] (setting [12]); 135% in experiment [1] (setting [13]); 163% in experiment [1] (setting [14]).
